Data from ChEMBL document CHEMBL1201862, “PubChem BioAssay data set” (2004).
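Dose response: 5 concentrations. Exposure: 48 h. Format: 96-well plates. Endpoint: linear interpolation; highest concentration if not reached. The concentration for 50% growth inhibition is given as GI50.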 Activity calls are given as the source filed them. Rule as the data show it: active = GI50 up to about 1.1 µM and inactive = higher.

Legend:
Test in all cases: inhibition of tumour cell growth, NCI panel, 48 h
[1] = test system: RXF 393
[2] = test system: MOLT-4
[3] = test system: UO-31
[4] = test system: KM12
[5] = test system: U-251
[6] = test system: HCC 2998
[7] = test system: CCRF-CEM
[8] = test system: HOP-92
[9] = test system: M14
[10] = test system: OVCAR-3
[11] = test system: SF-539
[12] = test system: ACHN
[13] = test system: LOX IMVI
[14] = test system: SN12C
[15] = test system: 786-0
[16] = test system: HCT-116
[17] = test system: K562
[18] = test system: A498

Measured: GI50

COc1ccc(OC)c(-c2cc(O)c3cc4c(cc3n2)OCO4)c1
inactive: [1] 2.99 µM | [2] 6.34 µM | [3] 19.8 µM | [4] 3.86 µM | [5] 7.59 µM | [6] 4.67 µM | [7] 4.36 µM | [8] 3.54 µM | [9] 3.94 µM | [10] 3.93 µM | [11] 5.7 µM | [12] 6.58 µM | [13] 6.07 µM | [14] 6.79 µM | [15] 6.47 µM | [16] 4.14 µM | [17] 4.11 µM

Cc1cnc2ccc(C)c([N+](=O)[O-])c2c1NCCCN(C)C
inactive: [2] > 100 µM | [3] 27.2 µM | [4] > 100 µM | [5] > 100 µM | [6] > 100 µM | [7] > 100 µM | [9] > 100 µM | [10] > 100 µM | [11] > 100 µM | [12] > 100 µM | [13] > 100 µM | [14] > 100 µM | [15] > 100 µM | [16] 74.8 µM | [17] > 100 µM

COc1cc(C2=NN(C)C(c3ccc([N+](=O)[O-])o3)C2)cc(OC)c1OC (stereo not drawn)
inactive: [2] 24 µM | [3] 72.1 µM | [4] > 100 µM | [5] 56.8 µM | [18] > 100 µM | [6] > 100 µM | [7] 22.2 µM | [8] 45.5 µM | [9] 53.8 µM | [11] 49.7 µM | [12] > 100 µM | [13] 69 µM | [14] 83.8 µM | [15] 23.1 µM | [16] 48.8 µM | [17] 52 µM

NNC(=O)N/N=C1\CN(c2ccc(Cl)cc2Cl)C(=O)C(=O)C1c1nc2ccccc2o1 (stereo not drawn)
inactive: [2] > 100 µM | [3] 92.5 µM | [4] > 100 µM | [5] 54.8 µM | [18] > 100 µM | [6] > 100 µM | [7] > 100 µM | [8] > 100 µM | [9] > 100 µM | [10] > 100 µM | [11] > 100 µM | [12] > 100 µM | [14] > 100 µM | [15] > 100 µM | [16] > 100 µM | [17] > 100 µM

COc1ccc(NC(=O)CC(=O)NN2C(=O)/C(=C/c3ccc(N(CCC#N)CCC#N)cc3C)N=C2/C=C\c2ccccc2)cc1
inactive: [2] > 100 µM | [3] > 100 µM | [4] > 100 µM | [5] > 100 µM | [18] > 100 µM | [7] > 100 µM | [8] > 100 µM | [9] > 100 µM | [10] > 100 µM | [11] > 100 µM | [12] > 100 µM | [13] > 100 µM | [14] > 100 µM | [15] > 100 µM | [16] > 100 µM | [17] > 100 µM

CC(C)C12Cc3c(ccc4ccccc34)OC1(C)Oc1ccc3ccccc3c1C2 (stereo not drawn)
inactive: [1] > 100 µM | [2] > 100 µM | [3] > 100 µM | [4] > 100 µM | [5] > 100 µM | [7] > 100 µM | [8] > 100 µM | [9] > 100 µM | [10] 59.7 µM | [11] > 100 µM | [12] > 100 µM | [13] > 100 µM | [14] > 100 µM | [15] > 100 µM | [16] > 100 µM | [17] > 100 µM

O=S(=O)(C1=CC(S(=O)(=O)c2ccccc2)COC1)c1ccccc1 (stereo not drawn)
inactive: [1] > 100 µM | [2] > 100 µM | [3] > 100 µM | [4] > 100 µM | [5] > 100 µM | [6] > 100 µM | [7] > 100 µM | [9] > 100 µM | [10] > 100 µM | [11] > 100 µM | [12] > 100 µM | [13] > 100 µM | [14] > 100 µM | [15] > 100 µM | [16] > 100 µM | [17] > 100 µM

Cc1cccc(C)c1N1C(=O)C(=O)C(c2nc3ccccc3s2)/C(=N/c2cccc3c(=O)[nH][nH]c(=O)c23)C1=O (stereo not drawn)
inactive: [2] 66.5 µM | [3] > 100 µM | [4] > 100 µM | [5] 83 µM | [18] > 100 µM | [6] > 100 µM | [7] 45.7 µM | [8] 92 µM | [9] > 100 µM | [10] > 100 µM | [11] > 100 µM | [12] > 100 µM | [13] > 100 µM | [14] > 100 µM | [15] > 100 µM | [16] > 100 µM | [17] 98.4 µM

COc1ccc(OC)c(NC(=O)CCC/C(CC(=O)c2ccc(O)c(OC)c2)=N\Nc2nnc(C)n2N)c1
inactive: [2] > 100 µM | [3] > 100 µM | [4] > 100 µM | [5] > 100 µM | [18] > 100 µM | [6] > 100 µM | [7] > 100 µM | [8] > 100 µM | [9] > 100 µM | [10] > 100 µM | [11] > 100 µM | [12] > 100 µM | [13] > 100 µM | [14] > 100 µM | [15] > 100 µM | [17] 32.4 µM

Fc1ccc(C2SCc3nc4ccccc4n32)cc1 (stereo not drawn)
inactive: [1] 17.2 µM | [2] 32.1 µM | [3] 23 µM | [4] 37.2 µM | [5] 51.3 µM | [7] 42.1 µM | [8] 19.9 µM | [9] 43.3 µM | [10] 24.4 µM | [11] > 100 µM | [12] 34.8 µM | [13] 49.2 µM | [14] 27 µM | [15] 42.9 µM | [16] 32.4 µM | [17] 31.3 µM

CS(=O)(=O)OCCn1cnc2nc(NC(=O)c3ccccc3)[nH]c(=O)c21
inactive: [1] > 100 µM | [3] > 100 µM | [4] > 100 µM | [5] > 100 µM | [18] > 100 µM | [7] > 100 µM | [8] > 100 µM | [9] > 100 µM | [10] > 100 µM | [11] > 100 µM | [12] > 100 µM | [13] > 100 µM | [14] > 100 µM | [15] > 100 µM | [16] > 100 µM | [17] > 100 µM

Cc1ccc(Nc2nc(C)c(C(/C=C/c3ccc(/C=C/C(=N/NC(=O)C[n+]4ccccc4)c4sc(Nc5ccc(C)cc5[N+](=O)[O-])nc4C)cc3)=N\NC(=O)C[n+]3ccccc3)s2)c([N+](=O)[O-])c1
inactive: [1] > 100 µM | [2] 76.7 µM | [3] 46.5 µM | [4] > 100 µM | [5] > 100 µM | [6] > 100 µM | [7] 32.3 µM | [9] > 100 µM | [10] > 100 µM | [11] 89.1 µM | [12] 82.8 µM | [13] 73.3 µM | [14] 55.8 µM | [15] > 100 µM | [16] > 100 µM | [17] 81.3 µM
